Reference: ChEMBL document CHEMBL1146844, “Probing a water channel near the A-ring of receptor-bound 1 alpha,25-dihydroxyvitamin D3 with selected 2 alpha-substituted analogues” (J Med Chem, 2006)
The source made the active and inactive calls. The rule behind the calls is not given here.

The compounds below were run on HL-60 (assay: Induction of HL60 cell differentiation in correlation with affinity to human VDR).
Assay type: functional, cell-based

| SMILES | Activity |
| --- | --- |
| C=C1/C(=C\C=C2/CCC[C@]3(C)[C@@H]([C@H](C)CCCC(C)(C)O)CC[C@@H]23)C[C@@H](O)[C@H](OCCCO)[C@@H]1O | inactive |
| C=C1/C(=C\C=C2/CCC[C@]3(C)[C@@H]([C@H](C)CCCC(C)(C)O)CC[C@@H]23)C[C@H](O)[C@@H](OCCC)[C@H]1O | inactive |
| C=C1/C(=C\C=C2/CCC[C@]3(C)[C@@H]([C@H](C)CCCC(C)(C)O)CC[C@@H]23)C[C@@H](O)[C@H](CCC)[C@@H]1O | Active |
| C=C1/C(=C\C=C2/CCC[C@]3(C)[C@@H]([C@H](C)CCCC(C)(C)O)CC[C@@H]23)C[C@@H](O)[C@H](CCCO)[C@@H]1O | Active |
| C=C1/C(=C\C=C2/CCC[C@]3(C)[C@@H]([C@H](C)CCCC(C)(C)O)CC[C@@H]23)C[C@@H](O)[C@H](C)[C@@H]1O | Active |
